Data as given in patent US20230097157A1, “Bicyclic Pyridin-2-one and pyrimidin-4-one Derivatives Useful As a Factor XIa Inhibitors” (Janssen Pharmaceutica NV, priority 2021, published 2023).
Read-outs that look alike come from different tables or passages of the source.

What was measured:
Factor XIa = Factor XIa (Homo sapiens, UniProt P03951); experiment: Factor XIa inhibition assay (FLINT) utilizing a fluorophore-quencher pair peptide substrate 5Fam-[…]-K5Tamra; format: biochemical; conditions: kinetic (KIN) reads, read-out: FXIa KIN Inh IC50
Text: Biological Example 1: Factor XIa Inhibition Assay Utilizing a Fluorophore-Quencher Pair Peptide Substrate A fluorescence intensity (FLINT) based assay was used to monitor inhibition of Factor XIa. The peptide substrate, 5Fam-[…]-K5Tamra (purchased from New England Peptide) was chosen based on the FXI sequence. Conversion of zymogen FXI to its activated form, FXIa, occurs by proteolytic cleavage by […] at two sites, Arg146 and Arg180. The custom peptide used in this assay was based on the Arg146 cleavage site of FXI. The peptide substrate was designed with a fluorophore-quencher pair, where the fluorescence is quenched until FXIa cleaves the 8-mer peptide after the Arg residue.
The Factor XIa FLINT assay was used with the following 5Fam-[…]-K5Tamra assay buffer: 50 mM Tris, pH 7.5, 100 mM NaCl, 5 mM CaCl2, 0.1 mg/mL BSA, 0.03% CHAPS. Assay buffer was prepared by mixing all ingredients fresh. 5Fam-[…]-K5Tamra peptide substrate was first prepared at 10 mM in 100% DMSO, then diluted to 3 mM in 100% DMSO. Assay buffer was then added directly to the 3 mM stock of substrate to prepare the 30 μM 2× working concentration (15 μM final concentration). The 2× Factor XIa stock solution was prepared by diluting 6.562 μM stock in 1× assay buffer for a […].
Test compound(s) were run in an 11-point, 3-fold serial dilution with a final top compound concentration of 100 nM. Final DMSO in assay was 2%. FXIa was preincubated with compound for 30-minutes and then substrate was added to initiate the reaction. The assay was run with kinetic (KIN) reads at 5 min intervals over 30 minutes. […] More specifically, the assay was run as follows: • 100 nL of 0.01 mM test compound was dispensed into black 384-well non-binding Greiner BioOne 784900 plate for 0.1 μM final concentration; • 5 μL of 1× assay buffer was dispensed to column 24 (low control) and 5 μL 2× Factor XIa solution was dispensed to columns 1-23 (column 23 high control); • the plate was centrifuged with a “cover” plate at 500 rpm for 1 min • the plate was pre-incubated for 30 minutes at room temperature with plate covered; • 5 μL of 2×5Fam-[…]-K5Tamra peptide substrate was dispensed into the entire plate, columns 1-24; • the plate was centrifuged with a “cover” plate at 500 rpm for 1 min; • the plate was read monitoring fluorescence intensity on the BMG PHERAStar at room temperature, using fluorescence module 485 nm/520 nm.
(§1) Percent inhibition (IC50) curves were generated per compound tested, and data was analyzed using a 4-parameter logistic fit using GeneData Screener. The relative fluorescence unit (RFU) values were normalized to percent inhibition using the following equation:
% inhibition=((HC−LC)−(compound−LC)/(HC−LC))*100 where LC−low control=mean signal of no Factor XIa or 100% inhibition of Factor XIa; HC−high control=mean signal of Factor XIa+5Fam-[…]-K5Tamra peptide substrate with DMSO only.
(§2) An 11-point dose response curve for the test compound(s) was generated using GENDATA to determine IC50 value based on the following equation:
Y=Bottom+(Top−Bottom)/(1+10^((log IC50−X)*HillSlope)) where Y is the % inhibition in the presence of X inhibitor concentration, Top=high control=mean signal of Factor XIa+5Fam-[…]-K5Tamra peptide substrate with DMSO only; Bottom=low control−mean signal of no Factor XIa or 100% inhibition of Factor XIa; HillSlope−Hill coefficient; and IC50=concentration of compound with 50% inhibition in relation to top/high control.

human plasma kallikrein = human plasma kallikrein (Homo sapiens, UniProt P03952); experiment: Kallikrein inhibition assay (FLINT) utilizing a quenched AMC peptide substrate Z-Gly-Pro-Arg-AMC; format: biochemical; conditions: kinetic (KIN) reads, read-out: Kallikrein KIN Inh IC50
Text: Biological Example 2: Kallikrein Inhibition Assay Utilizing a Quenched AMC Peptide Substrate A fluorescence intensity (FLINT) based assay was used to monitor inhibition of human plasma kallikrein. The peptide substrate, Z-Gly-Pro-Arg-AMC (Purchased from Bachem; Catalog #I-1150) was chosen based on its relatively low KM for kallikrein which enables running the assay at lower substrate concentrations to control background fluorescence.
The Kallikrein FLINT assay was used with the following Z-Gly-Pro-Arg-AMC assay buffer: 50 mM Tris, pH 7.5, 100 mM NaCl, 5 mM CaCl2, 0.1 mg/mL BSA, 0.03% CHAPS. Assay buffer was prepared by mixing all ingredients fresh. 2× Z-Gly-Pro-Arg-AMC peptide substrate was prepared by diluting 10 mM stock into 1× assay buffer for a 100 μM working concentration (50 μM final concentration). The 2× kallikrein stock solution was prepared by diluting 14.76 μM stock in 1× assay buffer for a 4 nM working stock solution (2 nM final concentration).
Test compound(s) were run in an 11-point, 3-fold serial dilution with a final top compound concentration of 1 μM. Final DMSO in assay was 2%. Plasma kallikrein was pre-incubated for 30-minute with compound and then 50 μM substrate was added to initiate the reaction. The assay was run with kinetic (KIN) reads at 5 min intervals over 30 minutes. The time course was linear using 2 nM kallikrein greater than 30 minutes. More specifically, the assay was run as follows: • 100 nL of 0.1 mM test compound was dispensed into black 384-well non-binding Greiner BioOne 784900 plate for 1 μM final concentration; • 5 μL of 1× assay buffer was dispensed to columns 24 (low control) and 5 μL 2× human kallikrein enzyme solution was dispensed to columns 1-23 (column 23 high control); • the plate was centrifuged with a “cover” plate at 500 rpm for 1 min • the plate was pre-incubated for 30 minutes at room temperature with plate covered; • 5 μL of 2× Z-Gly-Pro-Arg-AMC peptide substrate was dispensed into the entire plate, columns 1-24; • the plate was centrifuged with a “cover” plate at 500 rpm for 1 min; • the plate was read monitoring fluorescence intensity on the BMG PHERAStar at room temperature, using fluorescence module 340 nm/440 nm.
as §1
% inhibition=((HC−LC)−(compound−LC)/(HC−LC))*100 where LC—low control=mean signal of […] or 100% inhibition of human kallikrein enzyme; HC—high control=mean signal of […]+Z-Gly-Pro-Arg-AMC peptide substrate with DMSO only.
as §2
Y=Bottom+(Top−Bottom)/(1+10^((log IC50−X)*HillSlope)) where Y is the % inhibition in the presence of X inhibitor concentration, Top=high control=mean signal of human kallikrein enzyme+Z-Gly-Pro-Arg-AMC peptide substrate with DMSO only; Bottom=low control−mean signal of no human kallikrein enzyme or 100% inhibition of human kallikrein enzyme; HillSlope−Hill coefficient; and IC50=concentration of compound with 50% inhibition in relation to top/high control.

Chain of human plasma kallikrein (P03952 391-638 limits assumed): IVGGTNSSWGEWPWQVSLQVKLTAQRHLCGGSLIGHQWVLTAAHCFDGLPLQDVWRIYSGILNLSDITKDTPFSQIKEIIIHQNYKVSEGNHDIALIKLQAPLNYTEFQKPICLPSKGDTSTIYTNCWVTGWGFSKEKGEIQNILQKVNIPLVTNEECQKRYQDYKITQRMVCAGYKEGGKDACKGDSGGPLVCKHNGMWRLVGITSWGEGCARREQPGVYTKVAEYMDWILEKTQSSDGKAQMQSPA
Chain of human plasma kallikrein (P03952 20-390 partner limits assumed): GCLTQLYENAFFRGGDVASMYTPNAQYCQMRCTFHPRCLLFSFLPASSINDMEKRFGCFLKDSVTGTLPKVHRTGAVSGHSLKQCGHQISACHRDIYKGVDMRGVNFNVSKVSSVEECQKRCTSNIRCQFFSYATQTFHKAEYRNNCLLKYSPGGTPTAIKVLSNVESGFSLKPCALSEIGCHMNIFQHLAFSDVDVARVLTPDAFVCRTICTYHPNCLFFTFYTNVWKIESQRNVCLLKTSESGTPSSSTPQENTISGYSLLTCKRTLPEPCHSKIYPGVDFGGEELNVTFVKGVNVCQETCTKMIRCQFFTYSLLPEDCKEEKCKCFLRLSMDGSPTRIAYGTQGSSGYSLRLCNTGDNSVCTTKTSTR
Chain of Factor XIa (P03951 388-625 limits assumed): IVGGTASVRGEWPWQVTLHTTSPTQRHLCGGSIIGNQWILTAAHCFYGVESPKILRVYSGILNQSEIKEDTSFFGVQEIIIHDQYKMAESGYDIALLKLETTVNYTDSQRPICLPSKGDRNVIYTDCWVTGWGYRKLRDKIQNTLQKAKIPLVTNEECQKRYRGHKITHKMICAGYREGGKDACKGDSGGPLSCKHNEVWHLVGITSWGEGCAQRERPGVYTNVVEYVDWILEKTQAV
Chain of Factor XIa (P03951 19-387 partner limits assumed): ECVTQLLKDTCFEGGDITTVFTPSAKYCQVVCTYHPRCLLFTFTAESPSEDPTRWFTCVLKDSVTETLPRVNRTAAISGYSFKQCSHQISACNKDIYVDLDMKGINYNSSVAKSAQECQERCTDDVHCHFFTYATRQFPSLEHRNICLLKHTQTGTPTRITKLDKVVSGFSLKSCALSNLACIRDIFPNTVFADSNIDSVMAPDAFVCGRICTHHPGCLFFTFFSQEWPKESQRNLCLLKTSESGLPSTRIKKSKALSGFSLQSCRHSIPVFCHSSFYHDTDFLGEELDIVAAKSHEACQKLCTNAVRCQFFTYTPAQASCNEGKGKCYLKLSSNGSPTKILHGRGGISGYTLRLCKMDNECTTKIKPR

Structure (SMILES) | IC50 (Factor XIa; values in nM) [nM] | IC50 (human plasma kallikrein; values in nM) [nM] | IC50 (human plasma kallikrein; unit μM) [nM] | IC50 (Factor XIa; unit μM) [nM]
C[C@H]1C[C@@H](c2ncc(-c3ccnc(N)c3F)[nH]2)n2c1nc(-c1c(-n3cnnn3)ccc(Cl)c1F)cc2=O (relative stereo) [Example 88, (6*S,8*S)-6-(5-(2-Amino-3-fluoropyridin-4-yl)-1H-imidazol-2-yl)-2-(3-chloro-2-fluoro-6-(1H-tetrazol-1-yl)phenyl)-8-methyl-7,8-dihydropyrrolo[1,2-a]pyrimidin-4(6H)-one] | 2.6 | 14.5 | – | –
C[C@H]1C[C@H](c2ncc(-c3ncc(N)nc3C3CC3)[nH]2)n2c1nc(-c1c(-n3cnnn3)ccc(Cl)c1F)cc2=O (relative stereo) [Example 90, (6*R,8*S)-6-(5-(5-Amino-3-cyclopropylpyrazin-2-yl)-1H-imidazol-2-yl)-2-(3-chloro-2-fluoro-6-(1H-tetrazol-1-yl)phenyl)-8-methyl-7,8-dihydropyrrolo[1,2-a]pyrimidin-4(6H)-one] | 21.4 | 298 | – | –
C[C@H]1C[C@@H](c2ncc(-c3ncc(N)nc3C3CC3)[nH]2)n2c1nc(-c1c(-n3cnnn3)ccc(Cl)c1F)cc2=O (relative stereo) [Example 91, (6*S,8*S)-6-(5-(5-Amino-3-cyclopropylpyrazin-2-yl)-1H-imidazol-2-yl)-2-(3-chloro-2-fluoro-6-(1H-tetrazol-1-yl)phenyl)-8-methyl-7,8-dihydropyrrolo[1,2-a]pyrimidin-4(6H)-one] | 39 | 168 | – | –
C[C@@H]1C[C@@H](c2ncc(-c3ccc4c(=O)cc[nH]c4c3)[nH]2)n2c1nc(-c1c(-n3cnnn3)ccc(Cl)c1F)cc2=O (relative stereo) [Example 101, 7-(2-((6S,8R)-2-(3-Chloro-2-fluoro-6-(1H-tetrazol-1-yl)phenyl)-8-methyl-4-oxo-4,6,7,8-tetrahydropyrrolo[1,2-a]pyrimidin-6-yl)-1H-imidazol-5-yl)quinolin-4(1H)-one] | 321 | – | 1300 | –
C[C@H]1C[C@@H](c2ncc(-c3ccc4c(=O)cc[nH]c4c3)[nH]2)n2c1nc(-c1c(-n3cnnn3)ccc(Cl)c1F)cc2=O (relative stereo) [Example 102, 7-(2-((6*S,8*S)-2-(3-Chloro-2-fluoro-6-(1H-tetrazol-1-yl)phenyl)-8-methyl-4-oxo-4,6,7,8-tetrahydropyrrolo[1,2-a]pyrimidin-6-yl)-1H-imidazol-5-yl)quinolin-4(1H)-one] | 18.2 | 446 | – | –
COc1nccc(-c2cnc([C@@H]3C[C@H](C)c4nc(-c5c(-n6cnnn6)ccc(Cl)c5F)cc(=O)n43)[nH]2)n1 (relative stereo) [Example 103, (6S,8S)-2-(3-chloro-2-fluoro-6-(1H-tetrazol-1-yl)phenyl)-6-(5-(2-methoxypyrimidin-4-yl)-1H-imidazol-2-yl)-8-methyl-7,8-dihydropyrrolo[1,2-a]pyrimidin-4(6H)-one] | 63.4 | 151 | – | –
COc1nccc(-c2cnc([C@H]3C[C@H](C)c4nc(-c5c(-n6cnnn6)ccc(Cl)c5F)cc(=O)n43)[nH]2)n1 (relative stereo) [Example 104, (6*R,8*S)-2-(3-Chloro-2-fluoro-6-(1H-tetrazol-1-yl)phenyl)-6-(5-(2-methoxypyrimidin-4-yl)-1H-imidazol-2-yl)-8-methyl-7,8-dihydropyrrolo[1,2-a]pyrimidin-4(6H)-one] | 113 | 115 | – | –
C[C@@H]1C[C@H](c2ncc(-c3cnns3)[nH]2)n2c1nc(-c1c(-n3cnnn3)ccc(Cl)c1F)cc2=O (relative stereo) [Example 105, (6*R,8*R)-6-(5-(1,2,3-Thiadiazol-5-yl)-1H-imidazol-2-yl)-2-(3-chloro-2-fluoro-6-(1H-tetrazol-1-yl)phenyl)-8-methyl-7,8-dihydropyrrolo[1,2-a]pyrimidin-4(6H)-one] | – | – | > 10000 | > 10000
